Calls of active or inactive are those of the source. No stated cut-off is given here; in the data, active means AC50 below about 11 µM.
System: B cell line, TNFa signaling counterscreen reporter
Assay: TNFa pathway inhibition counter-screen, B-lineage cells – dose response (AID 1259334);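 further: cells stimulated with TNFa after compound preincubation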

Point of comparison: `Nc1ccc(-c2cccc3c(=O)cc(N4CCOCC4)oc23)cc1`, AC50 8.56 µM. Against it:
- COc1ccc(CC2C(=O)NC(C)C(=O)N(C)C3C(=O)N(C)C(Cc4ccc(O)c(c4)Oc4ccc(cc4)C3O)C(=O)NC(C)C(=O)NC(C)C(=O)N2C)cc1 (configuration not stated) — 640-fold lower, 0.0133 µM
- Cc1nc(C)c(C(=O)Nc2ncc([N+](=O)[O-])s2)o1 — within 1.5-fold, 8.61 µM
- C[C@@H]1CN([C@@H](C)CO)C(=O)c2c(c3ccccc3n2C)-c2ccccc2CO[C@H]1CN(C)Cc1cccc(C(F)(F)F)c1 — within 1.5-fold, 6.02 µM
- COc1cccc(/C=N/Nc2ccc(C(=O)O)cc2)c1O — 4.2-fold lower, 2.02 µM
- O=C(Nc1cccc(N2C(=O)C=CC2=O)c1)c1cccs1 — 7-fold lower, 1.22 µM
- C[C@@H]1CN([C@@H](C)CO)C(=O)c2c(c3ccccc3n2C)-c2ccccc2CO[C@H]1CN(C)C(=O)Nc1cccc(C(F)(F)F)c1 — within 1.5-fold, 10.9 µM
- C[C@@H]1CN([C@@H](C)CO)C(=O)Cc2cc(NS(=O)(=O)c3ccc(F)cc3)ccc2O[C@H]1CN(C)Cc1ccc(C(F)(F)F)cc1 — 1.6-fold lower, 5.36 µM
- CC[C@@]1(O)C(=O)OCc2c1cc1n(c2=O)Cc2cc3ccccc3nc2-1 — 16-fold lower, 0.531 µM
- C[C@@H]1O[C@@H](O[C@H]2C[C@@H](O)[C@]3(CO)C4C(CC[C@]3(O)C2)[C@@]2(O)CC[C@H](C3=CC(=O)OC3)[C@@]2(C)C[C@H]4O)[C@H](O)[C@H](O)[C@H]1O (some centres not stated) — 62-fold lower, 0.138 µM
- COC(=O)C1=C(C)NC(C)=C(C(=O)OCCCN2CCC(c3ccccc3)(c3ccccc3)CC2)[C@H]1c1cccc([N+](=O)[O-])c1 — 2.1-fold lower, 4.12 µM
- COC1=CC(=O)c2c(ccc3ncnc(N)c23)C1=O — 8.7-fold lower, 0.98 µM
- CC=Cc1cc2c(c(=O)o1)C(=O)C(O)C(C)O2 (configuration not stated) — within 1.5-fold, 10.4 µM
- O=C(Nc1nc2ccccc2s1)c1ccc(OCC2CCCO2)cc1 (configuration not stated) — within 1.5-fold, 10.2 µM
- CC1OC(OC2C(O)CC(OC3C(O)CC(OC4CCC5(C)C(CCC6C5CCC5(C)C(C7=CC(=O)OC7)C(O)CC65O)C4)OC3C)OC2C)CC(O)C1O (configuration not stated) — 11-fold lower, 0.745 µM
- Cc1ccc(-c2cc(C(=O)N(C)CC(=O)Nc3ccccc3Br)c3ccccc3n2)o1 — within 1.5-fold, 11.1 µM
- COc1ccc(CC2C(=O)NC(C)C(=O)N(C)C3Cc4ccc(cc4)Oc4cc(ccc4O)CC(C(=O)NC(C)C(=O)NC(C)C(=O)N2C)N(C)C3=O)cc1 (configuration not stated) — 1800-fold lower, 0.00464 µM
- CC(C)=CCc1c2c(c3occ(-c4ccc(O)c(O)c4)c(=O)c3c1O)C=CC(C)(C)O2 — within 1.5-fold, 8.15 µM
- COc1ccc(/C=N/Nc2ncccc2[N+](=O)[O-])c(OC)c1 — 1.6-fold lower, 5.22 µM
- O=C1/C(=C/c2ccccc2)C[C@@]2(O)C3Cc4ccc(O)c5c4[C@@]2(CCN3CC2CC2)[C@H]1O5 — 6.4-fold lower, 1.34 µM
- C[C@H](CO)N1C[C@H](C)[C@H](CN(C)C(=O)Nc2cccc(Cl)c2Cl)OCc2ccccc2-c2c(n(C)c3ccccc23)C1=O — 3-fold lower, 2.81 µM
- CC1CCOC(=O)C=CC=CC(=O)OC2CC3OC4C5OC5(C)C(O)CC4(COC(=O)C1O)C2(C)C31CO1 (configuration not stated) — 250-fold lower, 0.0338 µM
- O=C1CC(c2ccc3c(c2)OCO3)Sc2nc3ccccc3n21 (configuration not stated) — 2.2-fold lower, 3.83 µM
- Cc1ccc(S(=O)(=O)CCC(=O)N(CCCN2CCOCC2)c2nc3ccccc3s2)cc1 — within 1.5-fold, 7.38 µM
- COC(=O)c1ccccc1-c1c2ccc(=N)cc-2oc2cc(N)ccc12 — 1.9-fold lower, 4.57 µM
- CC1CC(C)C(=O)C(C(O)CC2CC(=O)NC(=O)C2)C1 (configuration not stated) — 74-fold lower, 0.115 µM
- O=C(C#Cc1ccccc1)c1ccccc1 — 1.5-fold lower, 5.68 µM
- O=C1CCCCC1Sc1nnc(-c2ccc3c(c2)OCO3)o1 (configuration not stated) — 9.8-fold lower, 0.871 µM
- C[C@H]1CN([C@@H](C)CO)C(=O)c2c(c3ccccc3n2C)-c2ccccc2CO[C@@H]1CN(C)Cc1cccc(C(F)(F)F)c1 — within 1.5-fold, 8.42 µM
- C=C1C(=O)OC2CC1C(O)CC(C)=CCCC(C)=CC(O)CC2C (configuration not stated) — 3.8-fold lower, 2.27 µM
- O=C(C[C@@H]1CC[C@@H]2[C@H](COC[C@H](O)CN2Cc2cc(F)ccc2F)O1)NCc1ccc(Oc2ccccc2)cc1 — 1.7-fold lower, 5.02 µM
- COc1cc(C(=O)CCN2CCC(c3ccccc3)C2)cc(OC)c1OC (configuration not stated) — 1.8-fold lower, 4.66 µM
- COc1ccc2cc(-c3cc(C(=O)O)c4ccccc4n3)ccc2c1 — within 1.5-fold, 6.93 µM
- COc1cc2c(cc1OC)C(=O)C(Br)CC2 (configuration not stated) — 2.9-fold lower, 2.97 µM

With `COc1ccc(Cl)cc1NC(=O)Nc1cc(C)nc2ccccc12` the AC50 was > 20 µM (inactive).
In the case of `N#C[C@H]1[C@H](c2ccc(C#Cc3ccc(F)cc3)cc2)[C@@H](CO)N1C(=O)C1CCC1`, the AC50 is reported as > 20 µM (inactive).
For `Cc1noc(C)c1S(=O)(=O)N(C)C[C@H]1OCc2ccccc2-c2c(n(C)c3ccccc23)C(=O)N([C@@H](C)CO)C[C@H]1C`, the AC50 was > 20 µM (inactive).
For `COc1ccc2c3c(n(C)c2c1)[C@H](CO)N(C(=O)Nc1ccc(F)cc1)CC31CCN(C(=O)c2ccc3c(c2)OCO3)CC1`, the AC50 was > 20 µM (inactive).
With `[O-]C(=C(C(=S)Nc1cccc2ccccc12)[n+]1ccccc1)c1ccc2c(c1)OCCO2` the AC50 was > 20 µM (inactive).
With `CCN1C(=O)C(CC(=O)Nc2ccc(F)cc2)N(Cc2ccco2)C1=S` (configuration not stated) the AC50 was > 20 µM (inactive).
For `C[C@@H]1CC=CC[C@H](c2ccc(F)cc2)NC(=O)[C@@H](Cc2ccccc2)N(C)C(=O)c2ccccc2O1` (mixture of isomers), the AC50 was > 20 µM (inactive).
`C[C@@H]1CN([C@@H](C)CO)S(=O)(=O)c2ccc(C#Cc3ccccc3F)cc2O[C@H]1CN(C)C(=O)Cc1cccnc1` was tested, and the AC50 was > 20 µM (inactive).

Reference: PubChem BioAssay AID1259334 (Broad Institute, 2017)
